Results as given in patent US9296758B2, “2-quinolinyl-acetic acid derivatives as HIV antiviral compounds” (GILEAD SCIENCES, INC., priority 2010, dated 2016).

Test system: HIV-IIIb
Assay: Test A: Antiviral Assays in MT4 Cells
Assay type: cell-based
Details: MT-4 cells infected with HIV-IIIb (0.004 m.o.i.), 5 days of incubation, CellTiter-Glo chemiluminescence readout
Procedure: Test A: Antiviral Assays in MT4 Cells For the antiviral assay utilizing MT-4 cells, 0.4 μL of 189X test concentration of 3-fold serially diluted compound in DMSO was added to 40 μL of cell growth medium (RPMI 1640, 10% FBS, 1% penicillin/Streptomycin, 1% L-Glutamine, 1% HEPES) in each well of 384-well assay plates (10 concentrations) in quadruplicate. 1 mL aliquots of 2×10e6 MT-4 cells are pre-infected for 1 and 3 hrs respectively, @ 37° C. with 25 μL (MT4) or of either cell growth medium (mock-infected) or a fresh 1:250 dilution of an HIV-IIIb concentrated ABI stock (0.004 m.o.i. for MT4 cells). Infected and uninfected cells are diluted in cell growth medium and 35 uL of 2000 (for MT4) cells is added to each well of the assay plates. Assay plates were then incubated in a 37° C. incubator. After 5 days of incubation, 25 μl of 2× concentrated CellTiter-Glo™ Reagent (catalog #G7573, Promega Biosciences, Inc., Madison, Wis.) was added to each well of the assay plate. Cell lysis was carried out by incubating at room temperature for 2-3 min and then chemiluminescence was read using the Envision reader (PerkinElmer).

[1] = Human immunodeficiency virus 1, IIIB, MT4, 120 h

SMILES | EC50 [1] [nM] | EC50 [nM]
Cc1cc2nc(N3CCCC3)ccc2c(-c2ccc3c4c(ccnc24)CCO3)c1[C@H](OC(C)(C)C)C(=O)O [Compound 94, (S)-2-tert-butoxy-2-((R)-5-(2,3-dihydropyrano[4,3,2-de]quinolin-7-yl)-7-methyl-2-(pyrrolidin-1-yl)quinolin-6-yl)acetic acid] | 149 | –
Cc1cc2nc(C3CCCC3)ccc2c(-c2ccc3c4c(ccnc24)CCO3)c1[C@H](OC(C)(C)C)C(=O)O (atropisomer, axis not shown) [Compound 51, (S)-2-tert-Butoxy-2-((R)-2-cyclopentyl-5-(2,3-dihydropyrano[4,3,2-de]quinolin-7-yl)-7-methylquinolin-6-yl)acetic acid] | 30 | –
COC(=O)c1ccc2c(-c3ccc(Cl)cc3)c([C@H](OC(C)(C)C)C(=O)O)c(C)cc2n1 [Compound 12, (S)-2-tert-Butoxy-2-(5-(4-chlorophenyl)-2-(methoxycarbonyl)-7-methylquinolin-6-yl)acetic acid] | 210 | –
Cc1cc2nc(-c3cncnc3)ccc2c(-c2ccc3c4c(ccnc24)CCO3)c1[C@H](OC(C)(C)C)C(=O)O (atropisomer, axis not shown) [Compound 72, (S)-2-tert-Butoxy-2-((R)-5-(2,3-dihydropyrano[4,3,2-de]quinolin-7-yl)-7-methyl-2-(pyrimidin-5-yl)quinolin-6-yl)acetic acid] | 194 | –
Cc1cc2nc(C#CC3CC3)ccc2c(-c2ccc3c4c(ccnc24)CCO3)c1[C@H](OC(C)(C)C)C(=O)O (atropisomer, axis not shown) [Compound 42, (S)-2-tert-butoxy-2-((R)-2-(cyclopropylethynyl)-5-(2,3-dihydropyrano[4,3,2-de]quinolin-7-yl)-7-methylquinolin-6-yl)acetic acid] | 46 | –
Cc1cc2nc(-c3cccc(Cl)c3)ccc2c(-c2ccc3c4c(ccnc24)CCO3)c1[C@H](OC(C)(C)C)C(=O)O (atropisomer, axis not shown) [Compound 55, (S)-2-tert-Butoxy-2-((R)-2-(3-chlorophenyl)-5-(2,3-dihydropyrano[4,3,2-de]quinolin-7-yl)-7-methylquinolin-6-yl)acetic acid] | 41 | –
Cc1cc2nc(CCC3CC3)ccc2c(-c2ccc(Cl)cc2)c1[C@H](OC(C)(C)C)C(=O)O [Compound 39, (S)-2-tert-butoxy-2-(5-(4-chlorophenyl)-2-(2-cyclopropylethyl)-7-methylquinolin-6-yl)acetic acid] | 11 | –
Cc1cc2nc(C3CC3)ccc2c(-c2ccc(Cl)cc2)c1[C@H](OC(C)(C)C)C(=O)O [Compound 28, (S)-2-tert-butoxy-2-(5-(4-chlorophenyl)-2-cyclopropyl-7-methylquinolin-6-yl)acetic acid] | 43 | –
Cc1cc2nc(CN3CCCCC3)ccc2c(-c2ccc(Cl)cc2)c1[C@H](OC(C)(C)C)C(=O)O [Compound 11, (S)-2-tert-Butoxy-2-(5-(4-chlorophenyl)-7-methyl-2-(piperidin-1-ylmethyl)quinolin-6-yl)acetic acid] | 479 | –
Cc1cc2nc(CN(C)C)ccc2c(-c2ccc(Cl)cc2)c1[C@H](OC(C)(C)C)C(=O)O [Compound 9, (S)-2-tert-butoxy-2-(5-(4-chlorophenyl)-2-((dimethylamino)methyl)-7-methylquinolin-6-yl)acetic acid] | 173 | –
Cc1cc2c(ccc3nnnn32)c(-c2ccc(Cl)cc2)c1[C@H](OC(C)(C)C)C(=O)O [Compound 64, (S)-2-tert-butoxy-2-(6-(4-chlorophenyl)-8-methyltetrazolo[1,5-a]quinolin-7-yl)acetic acid] | 290 | –
Cc1cc2nc(C(F)F)ccc2c(-c2ccc3c4c(ccnc24)CCO3)c1[C@H](OC(C)(C)C)C(=O)O [Compound 99, (S)-2-tert-butoxy-2-((R)-2-(difluoromethyl)-5-(2,3-dihydropyrano[4,3,2-de]quinolin-7-yl)-7-methylquinolin-6-yl)acetic acid] | – | 12
Cc1cc2nc(CN(C)c3ccccc3)ccc2c(-c2ccc(Cl)cc2)c1[C@H](OC(C)(C)C)C(=O)O [Compound 14, (S)-2-tert-Butoxy-2-(5-(4-chlorophenyl)-7-methyl-2-((methyl(phenyl)amino)methyl)quinolin-6-yl)acetic acid] | 983 | –
Cc1cc2nc(C(=O)N(C)c3ccccc3)ccc2c(-c2ccc(Cl)cc2)c1[C@H](OC(C)(C)C)C(=O)O [Compound 17, (S)-2-tert-butoxy-2-(5-(4-chlorophenyl)-7-methyl-2-(methyl(phenyl)carbamoyl)quinolin-6-yl)acetic acid] | 359 | –
Cc1cc2nc(-c3cn(C)cn3)ccc2c(-c2ccc(Cl)cc2)c1[C@H](OC(C)(C)C)C(=O)O [Compound 86, (S)-2-tert-butoxy-2-(5-(4-chlorophenyl)-7-methyl-2-(1-methyl-1H-imidazol-4-yl)quinolin-6-yl)acetic acid] | 78 | –
CC(=O)c1ccc2c(-c3ccc4c5c(ccnc35)CCO4)c([C@H](OC(C)(C)C)C(=O)O)c(C)cc2n1 [Compound 111, (S)-2-((R)-2-Acetyl-5-(2,3-dihydropyrano[4,3,2-de]quinolin-7-yl)-7-methylquinolin-6-yl)-2-tert-butoxyacetic acid] | 352 | –
C#Cc1ccc2c(-c3ccc4c5c(ccnc35)CCO4)c([C@H](OC(C)(C)C)C(=O)O)c(C)cc2n1 (atropisomer, axis not shown) [Compound 45, (S)-2-tert-butoxy-2-((R)-5-(2,3-dihydropyrano[4,3,2-de]quinolin-7-yl)-2-ethynyl-7-methylquinolin-6-yl)acetic acid] | 29200 | –
Cc1cc2nc(C(C)C)ccc2c(-c2ccc3c4c(ccnc24)CCO3)c1[C@H](OC(C)(C)C)C(=O)O [Compound 46, (S)-2-tert-Butoxy-2-((R)-5-(2,3-dihydropyrano[4,3,2-de]quinolin-7-yl)-2-isopropyl-7-methylquinolin-6-yl)acetic acid] | 20 | –
Cc1ccc2c(-c3ccc4c(c3Cl)NCCO4)c([C@H](OC(C)(C)C)C(=O)O)c(C)cc2n1 [Compound 89, (S)-2-tert-Butoxy-2-((R)-5-(5-chloro-3,4-dihydro-2H-benzo[b][1,4]oxazin-6-yl)-2,7-dimethylquinolin-6-yl)acetic acid] | – | 42
Cc1cc2c(ccc(=O)n2Cc2ccccc2)c(-c2ccc3c4c(ccnc24)CCO3)c1[C@H](OC(C)(C)C)C(=O)O (atropisomer, axis not shown) [Compound 68, (S)-2-((R)-1-benzyl-5-(2,3-dihydropyrano[4,3,2-de]quinolin-7-yl)-7-methyl-2-oxo-1,2-dihydroquinolin-6-yl)-2-tert-butoxyacetic acid] | 29200 | –
Cc1cc2nc(-n3ccnc3)ccc2c(-c2ccc3c4c(ccnc24)CCO3)c1[C@H](OC(C)(C)C)C(=O)O [Compound 98, (S)-2-tert-butoxy-2-((R)-5-(2,3-dihydropyrano[4,3,2-de]quinolin-7-yl)-2-(1H-imidazol-1-yl)-7-methylquinolin-6-yl)acetic acid] | 251 | –
Cc1cc2nc(C(=O)O)ccc2c(-c2ccc(Cl)cc2)c1[C@H](OC(C)(C)C)C(=O)O [Compound 24, (S)-6-(tert-Butoxy(carboxy)methyl)-5-(4-chlorophenyl)-7-methylquinoline-2-carboxylic acid] | 29800 | –
Cc1cc2nc(-c3cccnc3)ccc2c(-c2ccc3c4c(ccnc24)CCO3)c1[C@H](OC(C)(C)C)C(=O)O (atropisomer, axis not shown) [Compound 81, (S)-2-tert-butoxy-2-((R)-5-(2,3-dihydropyrano[4,3,2-de]quinolin-7-yl)-7-methyl-2-(pyridin-3-yl)quinolin-6-yl)acetic acid] | 69 | –
Cc1ccc2c(-c3ccc(Cl)cc3Cl)c([C@H](OC(C)(C)C)C(=O)O)c(C)cc2n1 [Compound 104] | – | 720
Cc1cc2nc(-c3cn[nH]c3)ccc2c(-c2ccc3c4c(ccnc24)CCO3)c1[C@H](OC(C)(C)C)C(=O)O (atropisomer, axis not shown) [Compound 78, (S)-2-tert-Butoxy-2-((R)-5-(2,3-dihydropyrano[4,3,2-de]quinolin-7-yl)-7-methyl-2-(1H-pyrazol-4-yl)quinolin-6-yl)acetic acid] | 163 | –
Cc1ccc2c(-c3ccc(Cl)cc3Cl)c([C@H](OC(C)(C)C)C(=O)O)c(C)cc2n1 [Compound 5J, (S)-2-tert-butoxy-2-((S)-5-(2,4-dichlorophenyl)-2,7-dimethylquinolin-6-yl)acetic acid] | – | 19
Cc1ccc2c(-c3ccc4c5c(ccnc35)CCO4)c([C@H](OC(C)(C)C)C(=O)O)c(C)cc2n1 [Compound 6D, (S)-2-tert-butoxy-2-((R)-5-(2,3-dihydropyrano[4,3,2-de]quinolin-7-yl)-2,7-dimethylquinolin-6-yl)acetic acid] | – | 20
Cc1cc2nc(CCc3ccccc3)ccc2c(-c2ccc(Cl)cc2)c1[C@H](OC(C)(C)C)C(=O)O [Compound 37B, (S)-2-tert-butoxy-2-(5-(4-chlorophenyl)-7-methyl-2-phenethylquinolin-6-yl)acetic acid] | 46 | –
Cc1cc2nc(-c3ccccc3)ccc2c(-c2ccc3c4c(ccnc24)CCO3)c1[C@H](OC(C)(C)C)C(=O)O (atropisomer, axis not shown) [Compound 57, (S)-2-tert-Butoxy-2-((R)-5-(2,3-dihydropyrano[4,3,2-de]quinolin-7-yl)-7-methyl-2-phenylquinolin-6-yl)acetic acid] | 20 | –
